{
  "source": "paper PMC3518313",
  "about": "(Biochemistry, 2012)",
  "key": {"CaaD": {"test_system": "CaaD", "assay": "Inhibition of CaaD by the internal standard tartrate", "assay_type": "biochemical, Pseudomonas pavonaceae 170", "conditions": "at concentrations of 4 mM"}, "αY60W-CaaD [1]": {"biological_target": "T1, αY60W-CaaD (Pseudomonas pavonaceae, UniProt Q9EV84+Q9EV85, Q9EV85:Y61W)", "T1 sequence (Q9EV85 2-76 Y61W)": "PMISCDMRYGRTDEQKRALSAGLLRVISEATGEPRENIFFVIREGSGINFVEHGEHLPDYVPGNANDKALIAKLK", "T1 sequence (Q9EV84 2-71)": "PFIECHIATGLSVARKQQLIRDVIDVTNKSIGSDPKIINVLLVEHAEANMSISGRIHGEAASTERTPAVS"}, "αY60W-CaaD [2]": {"biological_target": "T1, αY60W-CaaD", "assay": "Global fitting of kinetic data to the six-step model", "assay_type": "biochemical, Pseudomonas pavonaceae 170"}, "αY60W-CaaD [3]": {"biological_target": "T1, αY60W-CaaD", "conditions": "competitive inhibition; 9 at 35–200 μM, bromide 0–50,000 μM"}, "αL57W-CaaD": {"test_system": "αL57W-CaaD", "assay": "Steady state activity assay", "assay_type": "biochemical, Pseudomonas pavonaceae 170", "conditions": "αL57W mutant"}, "αY60W-CaaD [4]": {"biological_target": "T1, αY60W-CaaD", "assay": "Stopped-flow fluorescence binding of malonate semialdehyde", "set-up": "species or system Pseudomonas pavonaceae 170"}, "αY60W-CaaD [5]": {"biological_target": "T1, αY60W-CaaD", "conditions": "αY60W-CaaD vs wild-type"}, "Wild-type CaaD": {"biological_target": "T2, Wild-type CaaD (Pseudomonas pavonaceae, UniProt Q9EV84+Q9EV85)", "T2 sequence (Q9EV85 2-76)": "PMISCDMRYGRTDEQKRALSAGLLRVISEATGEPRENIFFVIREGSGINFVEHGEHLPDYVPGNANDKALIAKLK", "T2 sequence (Q9EV84 2-71)": "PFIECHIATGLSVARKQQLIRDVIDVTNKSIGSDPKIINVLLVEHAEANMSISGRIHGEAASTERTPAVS", "assay": "Rapid-quench burst experiment, bromide quantified by IC", "conditions": "wild-type 400 μM; saturating 9; pH 8.1, 22 °C"}, "βI37W-CaaD": {"biological_target": "βI37W-CaaD (Pseudomonas pavonaceae, UniProt Q9EV84+Q9EV85, Q9EV84:I38W)", "assay": "biochemical"}, "αY60W-CaaD [6]": {"biological_target": "T1, αY60W-CaaD", "assay": "Stopped-flow fluorescence of the reaction with 9, conventional analysis", "assay_type": "biochemical, Pseudomonas pavonaceae 170"}, "αM7W-CaaD": {"test_system": "αM7W-CaaD", "assay_type": "biochemical", "conditions": "αM7W-CaaD vs wild-type"}, "αY60W-CaaD [7]": {"biological_target": "T1, αY60W-CaaD", "assay": "Rapid-quench burst experiment, bromide quantified by IC"}, "O=C(O)/C=C/Br": {"test_system": "O=C(O)/C=C/Br", "assay": "purified protein, by the assay type"}, "[8]": {"substrate": "O=C(O)/C=C/Br", "assay": "purified protein, by the assay type", "conditions": "other: wild-type CaaD, 100 mM Na2HPO4 buffer pH 8.1, 22 °C"}, "[9]": {"conditions": "Table 2, αY60W 400 μM, saturating 9, pH 8.1, 22 °C"}, "[10]": {"conditions": "Table 3, enzyme concentration 200 μM, 9 at 10,000 μM"}, "[11]": {"conditions": "Table 3, enzyme concentration 400 μM, 9 at 10,000 μM"}, "[12]": {"conditions": "Table 3, enzyme concentration 600 μM, 9 at 10,000 μM"}, "[13]": {"conditions": "other: αM7W, 100 mM Na2HPO4 buffer pH 8.1, 22 °C, pH 8.1, 22.0 °C"}, "[14]": {"conditions": "other: using the numbers in Table 4 and Scheme 3"}},
  "note": "Like-named read-outs stand apart in the source and are kept apart here.",
  "data": [
    {"molecule": "O=C(O)C(O)C(O)C(=O)O", "note": "(centres unmarked) [Tartrate]", "values": [
      {"measurement": "inhibition of CaaD", "setting": "CaaD", "value": "does not inhibit"}
    ]},
    {"molecule": "Br", "note": "[bromide]", "values": [
      {"measurement": "increase in fluorescence", "setting": "αY60W-CaaD [1]; bromide bound to αY60W-CaaD", "value": "~ 14%"},
      {"measurement": "fluorescence factor for enzyme-bound bromide", "setting": "αY60W-CaaD [1]; fit by simulation", "value": 1.17},
      {"measurement": "Kd", "setting": "αY60W-CaaD [1]; read-out: Kd, Br-, fit by simulation, koff fixed at 200 s^−1", "value": 12, "unit": "mM"},
      {"measurement": "Kd", "setting": "αY60W-CaaD [1]; read-out: predicted Kd, saturation of the fluorescence signal, hyperbolic fit", "value": 7.4, "unit": "mM"},
      {"measurement": "Kd", "setting": "αY60W-CaaD [2]; read-out: Kd,Br, best fit, global fit, k5 held fixed at 200 s^−1", "value": 12.5, "unit": "mM"},
      {"measurement": "Ki", "setting": "αY60W-CaaD [3]", "value": "~10", "unit": "mM"}
    ]},
    {"molecule": "O=C(O)/C=C/Cl", "note": "[compound 2, trans-3-chloroacrylic acid]", "values": [
      {"measurement": "activity", "setting": "αL57W-CaaD", "value": "no activity"}
    ]},
    {"molecule": "O=CCC(=O)O", "note": "[compound 4, malonate semialdehyde]", "values": [
      {"measurement": "Kd", "setting": "αY60W-CaaD [4]; Kd (koff / kon), estimate from conventional kon and koff", "value": 1.1, "unit": "mM"},
      {"measurement": "Kd", "setting": "αY60W-CaaD [4]; Kd, 4, calculated from simulation kon and koff", "value": "~0.6", "unit": "mM"},
      {"measurement": "Kd", "setting": "αY60W-CaaD [4]; Kd, end-point fluorescence titration fit to Equation S2", "value": 0.38, "unit": "mM"},
      {"measurement": "fluorescence factor for enzyme bound to 4", "setting": "αY60W-CaaD [4]; fit by simulation", "value": 1.14},
      {"measurement": "koff", "setting": "αY60W-CaaD [4]; read-out: koff, 4, conventional analysis, kobs vs [4], 250 ms", "value": 28, "unit": "s⁻¹"},
      {"measurement": "koff", "setting": "αY60W-CaaD [4]; read-out: koff, 4, fit by simulation (250 ms)", "value": 17, "unit": "s⁻¹"},
      {"measurement": "increase in the fluorescence signal", "setting": "αY60W-CaaD [4]; upon mixing αY60W-CaaD with 4", "value": 16, "unit": "%"}
    ]},
    {"molecule": "O=C(O)/C=C/Br", "note": "[compound 9, trans-3-bromoacrylate]", "values": [
      {"measurement": "decrease in Km compared with wild-type", "setting": "αY60W-CaaD [5]", "value": "~ 1.5 fold"},
      {"measurement": "Burst Amplitude (A)", "setting": "Wild-type CaaD", "value": 0.8},
      {"measurement": "kburst", "setting": "Wild-type CaaD", "value": "90 ± 20 ^c s^−1"},
      {"measurement": "kcat (calculated from the burst equation)", "setting": "Wild-type CaaD", "value": "3 ± 0.5", "unit": "s⁻¹"},
      {"measurement": "Kd", "setting": "βI37W-CaaD", "value": "> 40", "unit": "mM"},
      {"measurement": "net forward rate kfor", "setting": "αY60W-CaaD [6]; fit to Eq. 3", "value": "~ 8 s^−1"},
      {"measurement": "apparent reverse rate krev", "setting": "αY60W-CaaD [6]; fit to Eq. 3, equal to kcat", "value": "~ 3 s^−1"},
      {"measurement": "maximum rate of the fluorescence change", "setting": "αY60W-CaaD [6]; single exponential fit, first 1 s", "value": "~ 10 s^−1"},
      {"measurement": "f/f0 (fluorescence scaling factor), best fit", "setting": "αY60W-CaaD [2]; global fit to Scheme 4, fractional change in enzyme fluorescence", "value": 0.710},
      {"measurement": "k3, best fit", "setting": "αY60W-CaaD [2]; global fit, formation of E*PQ, k-3 fixed at 1 s^−1", "value": 9.6, "unit": "s⁻¹"},
      {"measurement": "activity", "setting": "αL57W-CaaD", "value": "no activity"},
      {"measurement": "decrease in kcat compared with wild-type", "setting": "αM7W-CaaD", "value": "~ 4 fold"},
      {"measurement": "decrease in kcat/Km compared with wild-type", "setting": "αM7W-CaaD", "value": 4, "unit": "fold"},
      {"measurement": "Burst Amplitude (A)", "setting": "αY60W-CaaD [7]; [9]", "value": 0.9},
      {"measurement": "kburst", "setting": "αY60W-CaaD [7]; [9]", "value": "86 ± 10", "unit": "s⁻¹"},
      {"measurement": "kcat (calculated from the burst equation)", "setting": "αY60W-CaaD [7]; [9]", "value": "2.5 ± 0.5", "unit": "s⁻¹"},
      {"measurement": "Burst Amplitude (A)", "setting": "αY60W-CaaD [7]; [10]", "value": 0.85},
      {"measurement": "kburst", "setting": "αY60W-CaaD [7]; [10]", "value": "43 ± 3 ^c s^−1"},
      {"measurement": "kcat (calculated from the burst equation)", "setting": "αY60W-CaaD [7]; [10]", "value": "1.8 ± 0.5", "unit": "s⁻¹"},
      {"measurement": "Burst Amplitude (A)", "setting": "αY60W-CaaD [7]; [11]", "value": 0.9},
      {"measurement": "kburst", "setting": "αY60W-CaaD [7]; [11]", "value": "86 ± 20", "unit": "s⁻¹"},
      {"measurement": "kcat (calculated from the burst equation)", "setting": "αY60W-CaaD [7]; [11]", "value": "2.5 ± 0.5", "unit": "s⁻¹"},
      {"measurement": "Burst Amplitude (A)", "setting": "αY60W-CaaD [7]; [12]", "value": 0.94},
      {"measurement": "kburst", "setting": "αY60W-CaaD [7]; [12]", "value": "107 ± 15", "unit": "s⁻¹"},
      {"measurement": "kcat (calculated from the burst equation)", "setting": "αY60W-CaaD [7]; [12]", "value": "2.8 ± 0.5", "unit": "s⁻¹"},
      {"measurement": "steady state turnover", "setting": "αY60W-CaaD [7]; summary of Tables 2 and 3 (CaaD and αY60W-CaaD), 9 at 10 mM", "value": 3, "unit": "s⁻¹"}
    ]},
    {"molecule": "αM7W-CaaD (Pseudomonas pavonaceae; Q9EV85:M8W)", "values": [
      {"measurement": "Km", "setting": "O=C(O)/C=C/Br; [13]", "value": "120 ± 10", "unit": "OM"},
      {"measurement": "kcat", "setting": "O=C(O)/C=C/Br; [13]", "value": 0.6, "unit": "s⁻¹"},
      {"measurement": "kcat/Km", "setting": "O=C(O)/C=C/Br; [13]", "value": 3000, "unit": "M⁻¹ s⁻¹"}
    ]},
    {"molecule": "αY60W-CaaD (Pseudomonas pavonaceae; Q9EV85:Y61W)", "values": [
      {"measurement": "Km", "setting": "O=C(O)/C=C/Br; [14]", "value": 95, "unit": "µM"},
      {"measurement": "kcat", "setting": "O=C(O)/C=C/Br; [14]", "value": 2.2, "unit": "s⁻¹"},
      {"measurement": "Km", "setting": "O=C(O)/C=C/Br; other: αY60W, 100 mM Na2HPO4 buffer pH 8.1, 22 °C, pH 8.1, 22.0 °C", "value": "70 ± 3.5", "unit": "OM"}
    ]},
    {"molecule": "Wild-type CaaD (Pseudomonas pavonaceae) (protein) chain 1: PMISCDMRYGRTDEQKRALSAGLLRVISEATGEPRENIFFVIREGSGINFVEHGEHLPDYVPGNANDKALIAKLK chain 2: PFIECHIATGLSVARKQQLIRDVIDVTNKSIGSDPKIINVLLVEHAEANMSISGRIHGEAASTERTPAVS", "values": [
      {"measurement": "Km", "setting": "[8]", "value": "120 ± 10", "unit": "OM"},
      {"measurement": "kcat", "setting": "[8]", "value": 2.5, "unit": "s⁻¹"},
      {"measurement": "kcat/Km", "setting": "[8]", "value": 13000, "unit": "M⁻¹ s⁻¹"}
    ]}
  ]
}
